Reference: patent US10329304B2, “Compounds and methods for inhibition of hedgehog signaling and phosphodiesterase” (Vanderbilt University, priority 2014, dated 2019)
Where two headings read alike, the source gives them in different places. Each block holds one compound with its values, some of them ahead of it.

Key:
PDE4D2 = biological target: T1, PDE4D2 (Homo sapiens, UniProt Q08499); experiment: In vitro PDE assay; format: biochemical; conditions: Table 9A
T1 construct: purchased BPS Biosciences (San Diego, Calif.)
Procedure: (§1) In vitro PDE profiling and dose-response assays were performed by BPS Biosciences (San Diego, Calif.). Kinetic Mechanism of inhibition studies were conducted by Millipore (St. Louis, Mo.). In brief, the PDE assay measures fluorescent polarization of FAM-AMP as FAM-cAMP is converted to FAM-AMP by PDE), the binding agent.
(§2) A series of dilutions of the test compound were prepared with 10% DMSO in assay buffer and 5 μl of the dilution was added to a 50 μl reaction so that the final concentration of DMSO is 1% in all of reactions. All of the PDE enzymatic reactions were conducted in duplicate at room temperature for 60 minutes in a 50 μl mixture containing PDE assay buffer (10 mM Tris-HCl, pH7.4, 10 mM MaCl2, 0.05% Tween 20), 100 nM FAM-cAMP, a PDE enzyme and a test compound.
(§3) After the enzymatic reaction, 100 μl of a binding solution (1:100 dilution of the binding agent, which contains the nano beads that recognize FAM-AMP, with the binding agent diluent) was added to each reaction and the reaction was performed at room temperature for 60 minutes. Fluorescence intensity was measured at an excitation of 485 nm and an emission of 528 nm using a Tecan Infinite M1000 microplate reader. Assays done by Millipore were conducted similarly with changes noted below: […]

PDE4D3 = biological target: T2, PDE4D3 (Homo sapiens, UniProt Q08499); experiment: In vitro PDE assay; format: biochemical
T2 construct: purchased BPS Biosciences (San Diego, Calif.); kinetic studies by Millipore (St. Louis, Mo.)
Procedure: as §1, §2, §3

Gli1 mRNA = experiment: Hh % Inh.: SAG-induced Gli1 expression in C3H10T½ cells (qPCR); format: cell-based; conditions: Mus musculus, C3H 10T1/2, SAG-induced (100 nM), 24 hours
Procedure: Compounds are dosed from 10 mM DMSO stock solutions, and mRNA is isolated after 24 hours of compound treatment. mRNA is reverse transcribed to produce cDNA which is quantified by quantitative polymerase chain reaction (qPCR) in triplicate and levels are normalized to GAPDH levels. Data is presented as percent inhibition compared to positive control (SAG).

[1] = test system: Hedgehog signaling (TM3-Gli-Luc); experiment: TM3-Gli-Luc luciferase reporter assay stimulated with 20 nM SAG; format: cell-based
Method in brief: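 Luciferase read-out divided by CellTiter-Glo viability, minus DMSO/no-SAG baseline, expressed relative to 20 nM SAG alone. Cells exposed to compound with SAG for 48 h at 37 °C in 2.5% FBS DMEM/F12 on gelatin. EC50 ±SEM from at least two separate-day runs.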

PC3 = experiment: Cell viability assay (CellTiter-Blue, 72 hr); format: cell-based; conditions: PC-3; human cancer cells; read-out: CELL KILLING EC50 (μM) Prostate PCx3
Procedure: (§4) Cancer cell lines were seeded in 96 well tissue culture plate at a low density (10,000 cells per well) and treated with varying concentrations of Eggmanone. After 72 hr incubation, CellTiter-Blue Cell Viability Assay (Promega, Madison, Wis.) was then performed according to manufacturer's protocol. Absorbance was then measured in a Modulus Microplate reader (Promega, Madison, Wis.) at 590 nm and compared to cells treated with DMSO.

MCF7 = experiment: Cell viability assay (CellTiter-Blue, 72 hr); format: cell-based; conditions: MCF7; human cancer cells; read-out: CELL KILLING EC50 (μM) Breast MCF7
Procedure: as §4
as §4, with “density” for “density (10,000 cells per well)”, “compounds identified in Table 7.” for “Eggmanone.”

H82 = experiment: Cell killing EC50 in H82 lung cancer cells (Table 10); format: cell-based; conditions: NCI-H82; human cancer cells
Procedure: It is anticipated that compounds disclosed herein could serve as an anti-tumor, anti-angiogenic, anti-metastatic, agent in the treatment of cancer. To this end, a series of clinically relevant cancer lines were assayed and the cell-killing EC50s for compounds according to the subject matter disclosed herein are provided in Table 10.

[2] = test system: Hedgehog signaling (Gli-Luc reporter); experiment: Hh Gli-Luciferase reporter assay in Shh-Light2 cells; format: cell-based, mouse; conditions: Mus musculus, Shh Light2; Table 9B; read-out: Shh Light2 Luc EC50
Procedure: For Hh signaling assays, Shh-Light2 cells stably transfected with Gli-Luciferase reporter construct were used along with Shh-conditioned media, as previously described^7. Alternatively, 3 μM purmorphamine or 20 nM Smoothened agonist (SAG) (Santa Cruz Biotechnology, Santa Cruz, Calif.) was used to induce Hh signaling. Reporter cells were seeded in 96-well plates and incubated overnight with the various concentrations of eggmanone and Shh-conditioned media. To assess the effects of overexpression of Gli-2, PDE4D3 and DN-PDE4D3 on Hh signaling, mammalian expression vectors containing these constructs were transfected into Shh-Light2 cells in 96-well plates using Fugene6 (Roche), according to manufacturer's instructions. The transfected or Shh-stimulated cells were incubated overnight with the various concentrations of compound. The cells were then lysed, and cell extracts were subjected to Steady-Glo luciferase assay (Promega) according to manufacturer's instructions. The results were normalized to cell titer, as determined using Cell Titer-Glo luminescence assay (Promega).

B16F11 = experiment: Cell viability assay (CellTiter-Blue, 72 hr); format: cell-based, Mouse; conditions: Mus musculus, B16-F10; Table 10; read-out: CELL KILLING EC50 (μM) Melanoma B16F10
Procedure: as §4
as §4, with “density” for “density (10,000 cells per well)”, “compounds identified in Table 7.” for “Eggmanone.”

DU145 = experiment: Cell viability assay (CellTiter-Blue, 72 hr); format: cell-based, Human; conditions: DU-145; human cancer cells; read-out: CELL KILLING EC50 (μM) Prostate DU145
Procedure: as §4
as §4, with “density” for “density (10,000 cells per well)”, “compounds identified in Table 7.” for “Eggmanone.”

HCT116 = experiment: Cell viability assay (CellTiter-Blue, 72 hr); format: cell-based, Human; conditions: HCT-116; human cancer cells; read-out: CELL KILLING EC50 (μM) Colon HTC116
Procedure: as §4
as §4, with “density” for “density (10,000 cells per well)”, “compounds identified in Table 7.” for “Eggmanone.”

DaoY = experiment: Cell viability assay (CellTiter-Blue, 72 hr); format: cell-based, Human; conditions: Daoy; human cancer cells; read-out: CELL KILLING EC50 (μM) Medulloblastoma DaoY
Procedure: as §4
as §4, with “density” for “density (10,000 cells per well)”, “compounds identified in Table 7.” for “Eggmanone.”

MDA-MB- 231 = experiment: Cell viability assay (CellTiter-Blue, 72 hr); format: cell-based, Human; conditions: MDA-MB-231; human cancer cells; read-out: CELL KILLING EC50 (μM) Breast MDA-231
Procedure: as §4
as §4, with “density” for “density (10,000 cells per well)”, “compounds identified in Table 7.” for “Eggmanone.”

HeLa = experiment: Cell viability assay (CellTiter-Blue, 72 hr); format: cell-based, Human; conditions: human cancer cells, read-out: CELL KILLING EC50 (μM) Cervix HeLa
Procedure: as §4
as §4, with “density” for “density (10,000 cells per well)”, “compounds identified in Table 7.” for “Eggmanone.”

SW480 = experiment: Cell viability assay (CellTiter-Blue, 72 hr); format: cell-based, Human; conditions: SW480; human cancer cells; read-out: CELL KILLING EC50 (μM) Colon SW480
Procedure: as §4
as §4, with “density” for “density (10,000 cells per well)”, “compounds identified in Table 7.” for “Eggmanone.”

RWGT2 = experiment: Cell viability assay (CellTiter-Blue, 72 hr); format: cell-based, Human; conditions: human cancer cells; read-out: CELL KILLING EC50 (μM) Lung Squam, NSCLC RWGT2
Procedure: as §4
as §4, with “density” for “density (10,000 cells per well)”, “compounds identified in Table 7.” for “Eggmanone.”

RKO = experiment: Cell viability assay (CellTiter-Blue, 72 hr); format: cell-based, Human; conditions: RKO; human cancer cells; read-out: CELL KILLING EC50 (μM) Colon RKO
Procedure: as §4
as §4, with “density” for “density (10,000 cells per well)”, “compounds identified in Table 7.” for “Eggmanone.”

[3] = Lipophilic efficiency (LipE = pEC50 − cLogP) and cLogP
Procedure: Therefore, we prioritized phenotypic analog evaluation in the Gli-responsive luciferase reporter line TM3-Gli-Luc stimulated with 20 nM Smo agonist (SAG) while concurrently monitoring non-specific cellular toxicity. Additionally, lipophilic efficiency (LipE), a concurrent readout of a compound's potency (pEC50) and lipophilicity (cLogP) derived by subtracting the latter from the former, was utilized to optimize solubility properties (Table 12B), allowing for straightforward tracking of compounds with improvements in both parameters.

[4] = Table 9A, read-out: TM3 G8 Luciferase EC 50

T2 sequence (Q08499 1-673 isoform Q08499-2): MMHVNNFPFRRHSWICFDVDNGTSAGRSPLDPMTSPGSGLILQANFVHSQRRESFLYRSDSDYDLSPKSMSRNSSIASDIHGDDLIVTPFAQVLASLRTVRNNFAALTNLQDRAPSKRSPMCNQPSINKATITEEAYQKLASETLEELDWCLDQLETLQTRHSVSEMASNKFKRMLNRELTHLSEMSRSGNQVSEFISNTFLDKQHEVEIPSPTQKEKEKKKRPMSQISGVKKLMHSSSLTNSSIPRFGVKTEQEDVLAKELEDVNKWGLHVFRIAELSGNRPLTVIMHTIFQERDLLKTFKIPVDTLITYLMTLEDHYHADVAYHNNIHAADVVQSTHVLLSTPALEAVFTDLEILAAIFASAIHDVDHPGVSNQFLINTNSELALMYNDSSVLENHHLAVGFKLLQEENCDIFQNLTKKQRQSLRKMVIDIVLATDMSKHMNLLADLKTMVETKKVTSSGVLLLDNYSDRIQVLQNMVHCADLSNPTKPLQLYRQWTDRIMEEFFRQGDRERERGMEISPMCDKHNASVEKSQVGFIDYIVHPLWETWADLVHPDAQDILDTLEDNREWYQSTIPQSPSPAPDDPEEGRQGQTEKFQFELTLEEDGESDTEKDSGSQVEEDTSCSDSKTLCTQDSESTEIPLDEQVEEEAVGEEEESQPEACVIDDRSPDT
T1 sequence (Q08499 303-809): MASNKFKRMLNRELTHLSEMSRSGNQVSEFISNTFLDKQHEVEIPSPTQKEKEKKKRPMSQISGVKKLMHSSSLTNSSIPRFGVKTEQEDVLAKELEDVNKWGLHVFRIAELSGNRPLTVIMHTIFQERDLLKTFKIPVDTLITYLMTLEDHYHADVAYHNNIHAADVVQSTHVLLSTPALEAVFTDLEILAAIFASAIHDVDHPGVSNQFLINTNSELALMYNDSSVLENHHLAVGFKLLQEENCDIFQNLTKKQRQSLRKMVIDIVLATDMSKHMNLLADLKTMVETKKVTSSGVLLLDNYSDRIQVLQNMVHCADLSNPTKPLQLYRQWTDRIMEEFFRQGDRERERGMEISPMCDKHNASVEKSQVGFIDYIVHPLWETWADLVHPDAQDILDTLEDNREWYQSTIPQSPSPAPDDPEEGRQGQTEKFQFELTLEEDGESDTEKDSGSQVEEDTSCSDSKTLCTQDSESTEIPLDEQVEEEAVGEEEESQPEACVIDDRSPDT

EC50 [2]: 2440 nM
SMILES: C=C(C)Cn1c(SCC(=O)c2ccc(F)cc2)nc2sc3c(c2c1=O)CCCC3 [HI0863]
EC50 (PC3): 47.7 µM | EC50 (MCF7): > 100 µM | EC50 (H82): > 100 µM | EC50 (B16F11): 4.46 µM | EC50 (DU145): 2.38 µM | EC50 (HCT116): 0.078 µM | EC50 (DaoY): 39.8 µM | EC50 (MDA-MB- 231): 3.12 µM | EC50 (HeLa): 12.2 µM | EC50 (SW480): 5.4 µM | EC50 (RWGT2): 38.8 µM | EC50 (RKO): 42.8 µM

LipE ([3]; Calculated as pEC50 - cLogP, Molinspiration Cheminformatics): 1.45 | EC50 ([1]; 20 nM SAG, mean ± standard error of the mean, read-out: TM3-Gli-Luc EC50): 6.4 ± 0.33 µM
SMILES: C=C(C)Cn1c(SCC(=O)c2cccs2)nc2sc3c(c2c1=O)CCNC3 [Formula 10a]

LipE ([3]; calculated as pEC50 - cLogP (Molinspiration Cheminformatics), Table 13): 2.06 | EC50 ([1]; TM3-Gli-Luc reporter line stimulated with 20 nM SAG, mean ± SEM, Table 13, read-out: TM3-Gli-Luc EC50): 0.931 ± 0.11 µM
SMILES: C=C(C)Cn1c(SCC(=O)c2cccs2)nccc1=O [Formula 19a]

IC50 (PDE4D3; Table 9B): 6 µM | EC50 [2]: > 10000 nM
SMILES: C=CCn1c(SCC(=O)c2ccccc2)nc2sc(CC)cc2c1=O [HI630]
EC50 (PC3): > 100 µM | EC50 (MCF7): > 100 µM | EC50 (H82): > 100 µM | EC50 (DU145): > 100 µM | EC50 (DaoY): > 100 µM | EC50 (MDA-MB- 231): 23.1 µM | EC50 (HeLa): > 100 µM | EC50 (SW480): 182 µM | EC50 (RWGT2): 44.4 µM | EC50 (RKO): 100 µM

Further lines, the compound ahead of its results:

SMILES: O=C(CSc1nc2sc3c(c2c(=O)n1-c1ccccc1)CCCC3)c1cccs1 [JEH-3-058-1]
IC50 (PDE4D2): 45 µM | IC50 (PDE4D3; Table 9A): 14 µM | inhibition at 1 µM (Gli1 mRNA; 1 pM [sic], read-out: C3H10T1/2 qPCR, Gh1 mRNA % Inh., 1 pM): 12% | inhibition at 10 µM (Gli1 mRNA; 10 pM [sic], read-out: C3H10T1/2 qPCR, Gh1 mRNA % Inh., 10 pM): 85.3% | EC50 [1, 4]: 12.6 µM

SMILES: C=CCn1c(SCC(=O)c2ccncc2)nc2sc3c(c2c1=O)CCCC3 [Formula 1KMH]
IC50 (PDE4D2): 5 µM | IC50 (PDE4D3; Table 9A): 8.2 µM

SMILES: C=CCn1c(SCC(=O)c2ccccn2)nc2sc3c(c2c1=O)CCCC3 [Formula 1KL1]
IC50 (PDE4D2): 25 µM | IC50 (PDE4D3; Table 9A): 62 µM

SMILES: C=CCn1c(SCC(=O)N2CCOCC2)nc2sc3c(c2c1=O)CCCC3 [Formula 1L4R]
IC50 (PDE4D2): > 100 µM | IC50 (PDE4D3; Table 9A): > 100 µM | EC50 [1, 4]: 2.82 µM
